One assay has as its system CCRF-CEM. Briefly: NCI 60 panel five-dose growth inhibition, Leukemia. Type of assay: cell-based, human. Particulars: for GI50: Homo sapiens.
The test system of a further assay is HOP-92. Briefly: NCI 60 panel five-dose growth inhibition, Non-Small Cell Lung Cancer. Type of assay: cell-based, human. Particulars: HOP-92, Non-Small Cell Lung Cancer; for GI50: Homo sapiens.
Another assay concerns NCI-H23. The description is as above. The note with it: for GI50: Homo sapiens. Type of assay: cell-based, human.
Another assay has as its system HT29. Put plainly: NCI 60 panel five-dose growth inhibition, Colon Cancer. Particulars: for GI50: Homo sapiens, HT-29. Format: cell-based, human.
A further assay concerns SF-295. Put plainly: NCI 60 panel five-dose growth inhibition, CNS Cancer. Type of assay: cell-based, human. Particulars: SF-295, CNS Cancer; for GI50: Homo sapiens.
A further assay has as its system SNB-19. Described as above. Type of assay: cell-based, human. The note with it: SNB-19, CNS Cancer; for GI50: Homo sapiens.
The test system of the next assay is OVCA R-3. Briefly: NCI 60 panel five-dose growth inhibition, Ovarian Cancer. The note with it: for GI50: Homo sapiens, OVCAR-3. Type of assay: cell-based, human.
The test system of another assay is OVCAR-4. Described as above. Format: cell-based, human. The note with it: OVCAR-4, Ovarian Cancer; for GI50: Homo sapiens.
A further assay deals with 786-0. Briefly: NCI 60 panel five-dose growth inhibition, Renal Cancer. Type of assay: cell-based, human. The note with it: 786-0, Renal Cancer; for GI50: Homo sapiens.
The next assay has as its system A498. Described as above. Particulars: for GI50: Homo sapiens, A498, A498, Renal Cancer. Type of assay: cell-based, human.
Assay [1] concerns panel of 60 different human cancer cell lines. Briefly: NCI panel of 60 human cancer cell lines, summary over the panel. Type of assay: cell-based. Particulars: against almost all the cell lines except UACC-62, COLO 205 and HCC-2998. As for the experimental part: All synthesized compounds were submitted and evaluated for their anticancer activity at the National Cancer Institute (NCI). The submitted compounds were tested against a panel of 60 different human cancer cell lines, initially at a single concentration of 10 μM. Compounds showing the best growth inhibition activity were then selected for a complete five-dose response study. The anti-tumor effect of each compound was then determined by its GI50 and LC50 values.
The five compounds selected for the full dose response studies have very effective GI50 and TGI (Total Growth Inhibition) values against a variety of human tumor cell lines. All the compounds have LD50 values >100 μM against most of the human cancer cell lines implying the compounds are anti-proliferative. […] Example 4 and Example 6 have <10 nM GI50 values against Leukemia cancer cell lines K-562, SR, non-small lung cancer cell line HOP-92, colon cancer cell lines HCT-116, HCT-15, melanoma cancer lines M14, UACC-62, ovarian cancer cell line NCI/ADR-RES and renal cancer cell line A498.

A word on the TGI: it is the concentration giving total growth inhibition. Low values mean more potent growth arrest, high ones less potent growth arrest. For orientation: GI50 means the concentration at which growth is held to half of that of the control. Consider `COc1cc(-c2n[nH]nc2-c2cc(OC)c(OC)c(OC)c2)cc(OC)c1OC` [Example 3, 4,5-bis(3,4,5-trimethoxyphenyl)-2H-1,2,3-triazole], for which the TGI in the assay on CCRF-CEM is over 100000 nM; in the assay on HOP-92, 11300 nM; in the assay on NCI-H23, over 100000 nM; in the assay with HT29, 14500 nM; in the assay with SF-295, over 100000 nM; with SNB-19 it was over 100000 nM. Also, the TGI is 40 nM with OVCA R-3 (OVCA R-3, Ovarian Cancer); over 100000 nM with OVCAR-4; over 100000 nM in the assay with 786-0; 6690 nM in the assay on A498 (A498, Renal Cancer). The 50% growth inhibitory concentration (GI50) in the assay on CCRF-CEM is 37.3 nM; in the assay on HOP-92 it was 98.9 nM; in the assay with NCI-H23, 64.9 nM; with HT29 it was 214 nM; in the assay on SF-295 it was 14.4 nM; in the assay on SNB-19, 52.5 nM. The GI50 is 10.8 nM in the assay on OVCA R-3 (OVCA R-3, Ovarian Cancer); 77.4 nM in the assay on OVCAR-4; 42.8 nM in the assay on 786-0; 33.2 nM in the assay with A498.

For `COc1cc(-c2n[nH]nc2-c2ccc3ccccc3n2)cc(OC)c1OC` [Example 4, 2-(5-(3,4,5-trimethoxyphenyl)-2H-1,2,3-triazol-4-yl)quinoline], the concentration for total growth inhibition (TGI) with CCRF-CEM is 21800 nM; with HOP-92, 2670 nM; in the assay with NCI-H23 it was 27900 nM; in the assay with HT29 it was 20500 nM; in the assay on SF-295, 150 nM; in the assay on SNB-19 it was over 100000 nM. The TGI in the assay with OVCA R-3 (OVCA R-3, Ovarian Cancer) was over 100000 nM; with OVCAR-4, over 100000 nM; with 786-0, over 100000 nM. For the same compound, the GI50 with CCRF-CEM was 31.9 nM; in the assay with HOP-92, under 10 nM; in the assay on NCI-H23, 37.7 nM; with HT29, 47.6 nM; in the assay with SF-295 it was 10.8 nM; with SNB-19, 36.9 nM. Further, the GI50 in the assay on OVCA R-3 (OVCA R-3, Ovarian Cancer) was 24.4 nM; with 786-0, 15.3 nM; with A498 it was under 10 nM.

Take `COc1ccc(-c2n[nH]nc2-c2cc(OC)cc(OC)c2)cc1` [Example 5, 4-(3,5-dimethoxyphenyl)-5-(4-methoxyphenyl)-2H-1,2,3-triazole]: the total growth inhibition concentration (TGI) was 46300 nM in the assay with CCRF-CEM; 80 nM in the assay with HOP-92; 68700 nM in the assay with NCI-H23; 10800 nM in the assay on HT29; 27500 nM in the assay with SF-295; over 100000 nM in the assay on SNB-19. Also, the total growth inhibition concentration (TGI) was under 10 nM with OVCA R-3 (OVCA R-3, Ovarian Cancer); “less than 10 nM” with OVCA R-3 (OVCAR-3, as stated in text); over 100000 nM with OVCAR-4; 19400 nM with 786-0; under 10 nM in the assay with A498 (A498, Renal Cancer); “less than 10 nM” in the assay with A498 (A498, as stated in text). Also, the concentration for 50% growth inhibition (GI50) in the assay on CCRF-CEM, in the assay with HOP-92, with NCI-H23, in the assay with HT29, in the assay with SF-295 and in the assay on SNB-19 was under 10 nM throughout. For the same compound, the GI50 with OVCA R-3 (OVCA R-3, Ovarian Cancer) is under 10 nM; in the assay on OVCAR-4, under 10 nM; in the assay with 786-0, under 10 nM; with A498, under 10 nM; in assay [1], under 10 nM.

With `COc1ccc(-c2n[nH]nc2-c2cc(OC)c(OC)c(OC)c2)cc1` [Example 6, 4-(4-methoxyphenyl)-5-(3,4,5-trimethoxyphenyl)-2H-1,2,3-triazole], the TGI is over 100000 nM in the assay on CCRF-CEM; 540 nM in the assay with HOP-92; 41700 nM in the assay with NCI-H23; 12300 nM in the assay on HT29; 42800 nM with SF-295; over 100000 nM in the assay with SNB-19. For the same compound, the total growth inhibition concentration (TGI) was under 10 nM with OVCA R-3 (OVCA R-3, Ovarian Cancer); 57200 nM with OVCAR-4; 13500 nM in the assay with 786-0; 1500 nM in the assay with A498 (A498, Renal Cancer). The GI50 in the assay with CCRF-CEM was 33.7 nM; in the assay on HOP-92 it was under 10 nM; with NCI-H23, 48 nM; with HT29, 25.3 nM; in the assay on SF-295, under 10 nM; in the assay with SNB-19, 29.4 nM. Also, the 50% growth inhibitory concentration (GI50) is under 10 nM with OVCA R-3 (OVCA R-3, Ovarian Cancer); 33.6 nM in the assay with OVCAR-4; under 10 nM with 786-0; under 10 nM in the assay with A498.

On to `COc1cc(-c2n[nH]nc2-c2ccc3c(c2)OCCO3)cc(OC)c1OC` [Example 7, 4-(2,3-dihydrobenzo[b][1,4]dioxin-6-yl)-5-(3,4,5-trimethoxyphenyl)-2H-1,2,3-triazole], for which the concentration for total growth inhibition (TGI) with CCRF-CEM was over 100000 nM; in the assay with HOP-92, 1590 nM; with NCI-H23 it was over 100000 nM; in the assay on HT29, 12500 nM; in the assay with SF-295, 3610 nM; with SNB-19, over 100000 nM. Besides, the TGI in the assay with OVCA R-3 (OVCA R-3, Ovarian Cancer) was 370 nM; in the assay on OVCAR-4, over 100000 nM; with 786-0, 63500 nM; with A498 (A498, Renal Cancer), 9320 nM. For the same compound, the GI50 with CCRF-CEM came out at 282 nM; in the assay with HOP-92, 122 nM; in the assay on NCI-H23 it was 767 nM; in the assay with HT29, 392 nM; with SF-295, 98.9 nM; in the assay with SNB-19 it was 501 nM. For the same compound, the GI50 in the assay on OVCA R-3 (OVCA R-3, Ovarian Cancer) was found to be 432 nM; in the assay with OVCAR-4, 76.3 nM; with 786-0, 618 nM; in the assay with A498 it was 343 nM.

The record behind these values is US10239844B2, “Disubstituted triazole analogs” (BioVentures, LLC, priority 2014, dated 2019).
